Source: patent US10246466B2, “Diaryl macrocycles as modulators of protein kinases” (TP THERAPEUTICS, INC., priority 2014, dated 2019)

Legend:
JAK2 = JAK2 (Homo sapiens (Human), UniProt O60674); assay: KINOMEscan kinase binding assay (DiscoveRx)
Description: (§1) For most assays, kinase-tagged T7 phage strains were prepared in an E. coli host derived from the BL21 strain. E. coli were grown to log-phase and infected with T7 phage and incubated with shaking at 32° C. until lysis. The lysates were centrifuged and filtered to remove cell debris. The remaining kinases were produced in HEK-293 cells and subsequently tagged with DNA for qPCR detection. […] The liganded beads were blocked with excess biotin and washed with blocking buffer (SeaBlock (Pierce), 1% BSA, 0.05% Tween 20, 1 mM DTT) to remove unbound ligand and to reduce nonspecific binding. […] All reactions were performed in polystyrene 96-well plates in a final volume of 0.135 mL. […] The kinase concentration in the eluates was measured by qPCR.

[1] = tested on: Colorectal cell line KM12 (harboring endogenous TPM3-TRKA fusion gene); assay: KM12 cell proliferation assay (CellTiter-Glo); format: cell-based; conditions: Homo sapiens, 72 hours incubation, read-out: KM 12 cell prolif. IC50
Description: (§2) Colorectal cell lines KM 12 (harboring endogenous TPM3-TRKA fusion gene) cells were cultured in DMEM medium, supplemented with 10% fetal bovine serum and 100 U/mL of penicillin/streptomycin. 5000 cells were seeded in 384 well white plate for 24 hours before compounds treatment. Cell proliferation was measured using CellTiter-Glo luciferase-based ATP detection assay (Promega) following the manufactures's protocol after 72 hours incubation. IC50 determinations were performed using GraphPad Prism software (GraphPad, Inc., San Diego, Calif.).
as §2, with “Alternatively: Colorectal” for “Colorectal”, “line KM12” for “lines KM 12”, “penicillin/streptomycin. […]” for “penicillin/streptomycin.”

[2] = tested on: Essential thrombocythemia cell line SET-2 cells (harboring endogenous JAK2 point mutation); assay: SET-2 cell proliferation assay (CellTiter-Glo); format: cell-based; conditions: Homo sapiens, 72 hours incubation, read-out: SET2 cell proli. IC50
JAK1 = JAK1 (Homo sapiens (Human), UniProt P23458); assay: KINOMEscan kinase binding assay (DiscoveRx)
Description: (§3) Kinase binding assays were performed at DiscoveRx using the general KINOMEscan Kd Protocol (Fabian, M. A. et al., “A small molecule-kinase interaction map for clinical kinase inhibitors,” Nat. Biotechnol. 2005, 23(3):329-36). For most assays, kinase-tagged T7 phage strains were prepared in an E. coli host derived from the BL21 strain. E. coli were grown to log-phase and infected with T7 phage and incubated with shaking at 32° C. until lysis. The lysates were centrifuged and filtered to remove cell debris. The remaining kinases were produced in HEK-293 cells and subsequently tagged with DNA for qPCR detection. Streptavidin-coated magnetic beads were treated with biotinylated small molecule ligands for 30 minutes at room temperature to generate affinity resins for kinase assays. The liganded beads were blocked with excess biotin and washed with blocking buffer (SeaBlock (Pierce), 1% BSA, 0.05% Tween 20, 1 mM DTT) to remove unbound ligand and to reduce nonspecific binding. […] All reactions were performed in polystyrene 96-well plates in a final volume of 0.135 mL. […] The beads were then re-suspended in elution buffer (1×PBS, 0.05% Tween 20, 0.5 μM non-biotinylated affinity ligand) and incubated at room temperature with shaking for 30 minutes. The kinase concentration in the eluates was measured by qPCR.

TRKA = TRKA (Homo sapiens (Human), UniProt P04629); assay: KINOMEscan kinase binding assay (DiscoveRx)
Description: as §3

JAK3 = JAK3 (Homo sapiens (Human), UniProt P52333); assay: KINOMEscan kinase binding assay (DiscoveRx)
Description: as §3

[3] = tested on: T cell lymphoma Karpas-299 cell line (harboring endogenous NPM-ALK fusion gene); assay: Karpas-299 cell proliferation assay (CellTiter-Glo); format: cell-based; conditions: Homo sapiens, 72 hours incubation, read-out: Karpas 299 cell proli. IC50
ALK = ALK (Homo sapiens (Human), UniProt Q9UM73); assay: KINOMEscan kinase binding assay (DiscoveRx)
Description: as §1

ROS1 = ROS1 (Homo sapiens (Human), UniProt P08922); assay: KINOMEscan kinase binding assay (DiscoveRx)
Description: as §3

ERK = assay: Downstream signal target phosphorylation assay in KM12 cells (western blot); format: cell-based; conditions: Homo sapiens, 5 hours treatment, read-out: inhibition of phosphorylation of ERK IC50
Description: (§4) Colorectal cell lines KM 12 (harboring endogenous TPM3-TRKA fusion gene) cells were cultured in DMEM medium, supplemented with 10% fetal bovine serum and 100 U/mL of penicillin/streptomycin. One million cells were seeded in 6-well plate for 24 hours before compounds treatment. Cells were washed with 1×PBS and collected after 5 hours treatment and lysed in RIPA buffer (50 mM Tris, pH 7.4, 150 mM NaCl, 1% NP-40, 0.5% Deoxycholate, 0.1% SDS) supplemented with 10 mM EDTA, Halt protease and phosphatase inhibitors (Thermo Scientific). Protein lysates (20 μg) were resolved on 4-12% Bolt Bis-Tris precasted gels with MES running buffer (Life Technologies), transferred to nitrocellulose membranes using Trans-Blot Turbo Transfer System (Bio-Rad) and detected with antibodies targeting phosphorylated TRK A (Cell Signaling Technology, Y496, Y680, Y681, clone C50F3; 1:1000 dilution), total TRK A (Santa Cruz Biotechnology, sc-11; clone C-14, 1:2000 dilution), phosphorylated AKT (Cell signaling, S473, D9E, #9271; 1:5000 dilution), total AKT (Cell Signaling Technology, 40D4; 1:2000 dilution), phosphorylated ERK (Cell Signaling Technology, Thr 202/204, D13.14.4E, #4370; 1:2000 dilution), total ERK (Cell Signaling Technology; 1:1000 dilution) and Tubulin (Sigma, T4026, 1:5000 dilution). […]

AKT = assay: as above; format: cell-based; conditions: Homo sapiens, 5 hours treatment, read-out: inhibition of phosphorylation of AKT IC50
Description: as §4

KM12 cells = assay: Caspase activity assay / PARP western blot; format: cell-based; conditions: 72 hours
Description: KM12 cells were maintained in DMEM medium supplemented with 10% fetal bovine serum and antibiotics. 500,000 cells were seeded in 12-well plate and various concentration of compounds were introduced for 72 hours For staurosporine treatment, 500 nM of STS were added at time of 60 hours and incubation of 12 hours as a positive control. All the cells were collected and washed with 1×PBS twice and then lysed in a lysis buffer (20 mM HEPES, 150 mM NaCl, 10 mM KCl, 5 mM EDTA, 1% NP40) supplemented with Halt protease and phosphatase inhibitors (Thermo Scientific). For caspase assays, around 20 μL (20 μg) of cell lysate were incubated with 20 μL of caspase3 glo reagent (Promega), measuring enzyme activity by the release of luminescence after 20 min incubation at 37° C. For western blotting, cell lysates were boiled and analyzed by SDS-PAGE/immunoblotting using PARP, or actin antibodies.

TPM3-TRKA = TPM3-TRKA (Homo sapiens (Human), UniProt P04629+P06753); assay: TRKA phosphorylation assay in KM12 cells (western blot); format: cell-based; conditions: 5 hours treatment, read-out: inhibition of autophosphorylation of TPM3-TRKA IC50
Description: as §4

TRKB = TRKB (Homo sapiens (Human), UniProt Q16620); assay: KINOMEscan kinase binding assay (DiscoveRx)
Description: as §3

PLK4 kinase = PLK4 kinase (Homo sapiens (Human), UniProt O00444); assay: KINOMEscan kinase binding assay (DiscoveRx); conditions: read-out: binding affinity with PLK4 kinase (Kd)
Description: as §3

[4] = tested on: Ba/F3-EML4-ALK wild type cell line; assay: EML4-ALK Ba/F3 cell proliferation assay (CellTiter-Glo); format: cell-based; conditions: 48 hours incubation
Description: The EML4-ALK wild-type gene (variant 1) was synthesized at GenScript and cloned into pCDH-CMV-MCS-EF1-Puro plasmid (System Biosciences, Inc). Ba/F3-EML4-ALK wild type cell line was generated by infecting Ba/F3 cells with lentivirus containing EML4-ALK wide-type. Stable cell lines were selected by puromycin treatment, followed by IL-3 withdrawal. 5000 cells were seeded in 384 well white plate overnight before compound treatment. Cell proliferation was measured using CellTiter-Glo luciferase-based ATP detection assay (Promega) following the manufactures's protocol after 48 hours of various concentration of compound incubation. IC50 determinations were performed using GraphPad Prism software (GraphPad, Inc., San Diego, Calif.).

Chain of JAK3 (P52333 whole entry): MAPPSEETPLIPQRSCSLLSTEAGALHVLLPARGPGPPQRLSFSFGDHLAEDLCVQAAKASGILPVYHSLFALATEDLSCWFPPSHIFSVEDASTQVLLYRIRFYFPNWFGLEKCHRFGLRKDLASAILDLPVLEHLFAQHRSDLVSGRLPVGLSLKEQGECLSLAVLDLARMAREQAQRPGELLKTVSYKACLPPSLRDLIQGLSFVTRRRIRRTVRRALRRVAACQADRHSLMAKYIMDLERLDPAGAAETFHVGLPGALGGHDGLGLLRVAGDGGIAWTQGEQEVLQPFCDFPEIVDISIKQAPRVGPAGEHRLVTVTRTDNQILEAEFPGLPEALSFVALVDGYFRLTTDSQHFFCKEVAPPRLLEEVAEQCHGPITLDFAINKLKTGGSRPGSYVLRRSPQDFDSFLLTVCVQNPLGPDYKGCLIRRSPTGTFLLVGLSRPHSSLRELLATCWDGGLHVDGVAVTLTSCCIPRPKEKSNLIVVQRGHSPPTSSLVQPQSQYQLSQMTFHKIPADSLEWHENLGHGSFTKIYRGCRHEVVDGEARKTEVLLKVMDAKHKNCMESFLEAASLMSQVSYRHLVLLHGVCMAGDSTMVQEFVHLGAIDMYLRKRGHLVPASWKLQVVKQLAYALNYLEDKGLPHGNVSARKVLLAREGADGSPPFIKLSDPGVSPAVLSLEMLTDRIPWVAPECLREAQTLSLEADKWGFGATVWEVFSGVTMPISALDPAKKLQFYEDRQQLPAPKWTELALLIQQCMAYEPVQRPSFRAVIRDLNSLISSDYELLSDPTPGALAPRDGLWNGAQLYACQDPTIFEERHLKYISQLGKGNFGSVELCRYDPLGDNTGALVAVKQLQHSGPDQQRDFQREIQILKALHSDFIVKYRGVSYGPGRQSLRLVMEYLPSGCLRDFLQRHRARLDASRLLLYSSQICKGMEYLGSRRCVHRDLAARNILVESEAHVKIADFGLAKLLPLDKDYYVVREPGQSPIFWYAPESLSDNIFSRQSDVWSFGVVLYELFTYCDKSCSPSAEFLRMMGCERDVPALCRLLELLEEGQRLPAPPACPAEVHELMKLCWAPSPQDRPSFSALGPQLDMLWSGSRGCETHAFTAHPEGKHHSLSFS
Chain of JAK1 (P23458 whole entry): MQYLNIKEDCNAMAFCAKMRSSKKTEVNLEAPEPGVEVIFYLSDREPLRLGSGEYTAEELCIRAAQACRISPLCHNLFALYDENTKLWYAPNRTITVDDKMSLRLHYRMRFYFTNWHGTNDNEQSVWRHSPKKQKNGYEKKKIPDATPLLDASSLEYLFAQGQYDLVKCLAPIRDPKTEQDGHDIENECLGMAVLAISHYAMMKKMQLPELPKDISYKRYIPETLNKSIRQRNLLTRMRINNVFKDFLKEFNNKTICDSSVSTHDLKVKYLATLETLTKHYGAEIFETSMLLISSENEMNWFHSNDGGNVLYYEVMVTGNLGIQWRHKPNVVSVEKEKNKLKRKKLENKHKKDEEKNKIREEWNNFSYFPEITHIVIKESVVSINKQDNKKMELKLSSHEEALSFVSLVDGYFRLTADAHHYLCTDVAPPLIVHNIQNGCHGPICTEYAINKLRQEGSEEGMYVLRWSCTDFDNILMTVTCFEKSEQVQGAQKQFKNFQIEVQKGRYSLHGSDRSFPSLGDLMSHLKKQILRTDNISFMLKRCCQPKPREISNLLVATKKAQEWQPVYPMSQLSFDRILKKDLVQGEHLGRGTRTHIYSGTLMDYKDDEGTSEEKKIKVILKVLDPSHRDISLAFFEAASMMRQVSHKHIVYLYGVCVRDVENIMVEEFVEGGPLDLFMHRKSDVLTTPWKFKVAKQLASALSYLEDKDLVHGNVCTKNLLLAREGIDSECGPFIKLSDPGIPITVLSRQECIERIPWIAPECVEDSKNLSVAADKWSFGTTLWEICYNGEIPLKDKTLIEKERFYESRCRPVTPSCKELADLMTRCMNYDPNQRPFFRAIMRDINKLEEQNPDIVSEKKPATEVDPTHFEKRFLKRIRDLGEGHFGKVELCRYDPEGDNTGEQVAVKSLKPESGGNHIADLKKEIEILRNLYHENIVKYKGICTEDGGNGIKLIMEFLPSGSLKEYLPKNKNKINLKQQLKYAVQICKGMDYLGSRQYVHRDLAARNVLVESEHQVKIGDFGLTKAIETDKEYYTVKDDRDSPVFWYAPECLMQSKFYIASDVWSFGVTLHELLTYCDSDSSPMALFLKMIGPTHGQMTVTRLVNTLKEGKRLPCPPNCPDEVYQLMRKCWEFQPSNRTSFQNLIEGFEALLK
Chain of JAK2 (O60674 whole entry): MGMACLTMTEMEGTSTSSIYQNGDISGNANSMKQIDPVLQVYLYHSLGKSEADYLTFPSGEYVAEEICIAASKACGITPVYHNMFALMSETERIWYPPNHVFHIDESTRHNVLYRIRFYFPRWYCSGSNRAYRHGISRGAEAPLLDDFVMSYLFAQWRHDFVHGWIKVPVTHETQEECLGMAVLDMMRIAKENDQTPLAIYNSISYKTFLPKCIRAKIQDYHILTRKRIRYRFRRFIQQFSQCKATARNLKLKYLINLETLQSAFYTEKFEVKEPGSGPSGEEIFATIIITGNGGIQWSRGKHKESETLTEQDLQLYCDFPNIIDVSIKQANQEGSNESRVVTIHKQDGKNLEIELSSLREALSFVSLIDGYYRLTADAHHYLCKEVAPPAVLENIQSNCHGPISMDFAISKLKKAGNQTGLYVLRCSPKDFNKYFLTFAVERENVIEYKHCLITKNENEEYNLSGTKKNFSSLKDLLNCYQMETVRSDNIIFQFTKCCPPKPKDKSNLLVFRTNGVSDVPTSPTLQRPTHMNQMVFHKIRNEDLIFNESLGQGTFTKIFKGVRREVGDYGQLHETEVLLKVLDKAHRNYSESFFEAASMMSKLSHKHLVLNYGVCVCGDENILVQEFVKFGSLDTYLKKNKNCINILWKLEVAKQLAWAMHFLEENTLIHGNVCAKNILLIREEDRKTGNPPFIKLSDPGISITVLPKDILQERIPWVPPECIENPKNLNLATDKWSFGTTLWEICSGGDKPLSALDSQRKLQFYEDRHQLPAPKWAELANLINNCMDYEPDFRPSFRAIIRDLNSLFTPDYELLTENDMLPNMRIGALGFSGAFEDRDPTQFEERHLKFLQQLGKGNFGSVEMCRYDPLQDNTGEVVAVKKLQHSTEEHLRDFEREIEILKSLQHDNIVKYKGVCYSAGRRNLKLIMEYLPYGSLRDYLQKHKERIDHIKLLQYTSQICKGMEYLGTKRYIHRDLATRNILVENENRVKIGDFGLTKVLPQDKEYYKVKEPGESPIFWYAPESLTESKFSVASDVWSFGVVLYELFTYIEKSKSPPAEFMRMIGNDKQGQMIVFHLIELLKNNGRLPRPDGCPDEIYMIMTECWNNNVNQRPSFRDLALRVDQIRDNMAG
Chain of ALK (Q9UM73 19-1620): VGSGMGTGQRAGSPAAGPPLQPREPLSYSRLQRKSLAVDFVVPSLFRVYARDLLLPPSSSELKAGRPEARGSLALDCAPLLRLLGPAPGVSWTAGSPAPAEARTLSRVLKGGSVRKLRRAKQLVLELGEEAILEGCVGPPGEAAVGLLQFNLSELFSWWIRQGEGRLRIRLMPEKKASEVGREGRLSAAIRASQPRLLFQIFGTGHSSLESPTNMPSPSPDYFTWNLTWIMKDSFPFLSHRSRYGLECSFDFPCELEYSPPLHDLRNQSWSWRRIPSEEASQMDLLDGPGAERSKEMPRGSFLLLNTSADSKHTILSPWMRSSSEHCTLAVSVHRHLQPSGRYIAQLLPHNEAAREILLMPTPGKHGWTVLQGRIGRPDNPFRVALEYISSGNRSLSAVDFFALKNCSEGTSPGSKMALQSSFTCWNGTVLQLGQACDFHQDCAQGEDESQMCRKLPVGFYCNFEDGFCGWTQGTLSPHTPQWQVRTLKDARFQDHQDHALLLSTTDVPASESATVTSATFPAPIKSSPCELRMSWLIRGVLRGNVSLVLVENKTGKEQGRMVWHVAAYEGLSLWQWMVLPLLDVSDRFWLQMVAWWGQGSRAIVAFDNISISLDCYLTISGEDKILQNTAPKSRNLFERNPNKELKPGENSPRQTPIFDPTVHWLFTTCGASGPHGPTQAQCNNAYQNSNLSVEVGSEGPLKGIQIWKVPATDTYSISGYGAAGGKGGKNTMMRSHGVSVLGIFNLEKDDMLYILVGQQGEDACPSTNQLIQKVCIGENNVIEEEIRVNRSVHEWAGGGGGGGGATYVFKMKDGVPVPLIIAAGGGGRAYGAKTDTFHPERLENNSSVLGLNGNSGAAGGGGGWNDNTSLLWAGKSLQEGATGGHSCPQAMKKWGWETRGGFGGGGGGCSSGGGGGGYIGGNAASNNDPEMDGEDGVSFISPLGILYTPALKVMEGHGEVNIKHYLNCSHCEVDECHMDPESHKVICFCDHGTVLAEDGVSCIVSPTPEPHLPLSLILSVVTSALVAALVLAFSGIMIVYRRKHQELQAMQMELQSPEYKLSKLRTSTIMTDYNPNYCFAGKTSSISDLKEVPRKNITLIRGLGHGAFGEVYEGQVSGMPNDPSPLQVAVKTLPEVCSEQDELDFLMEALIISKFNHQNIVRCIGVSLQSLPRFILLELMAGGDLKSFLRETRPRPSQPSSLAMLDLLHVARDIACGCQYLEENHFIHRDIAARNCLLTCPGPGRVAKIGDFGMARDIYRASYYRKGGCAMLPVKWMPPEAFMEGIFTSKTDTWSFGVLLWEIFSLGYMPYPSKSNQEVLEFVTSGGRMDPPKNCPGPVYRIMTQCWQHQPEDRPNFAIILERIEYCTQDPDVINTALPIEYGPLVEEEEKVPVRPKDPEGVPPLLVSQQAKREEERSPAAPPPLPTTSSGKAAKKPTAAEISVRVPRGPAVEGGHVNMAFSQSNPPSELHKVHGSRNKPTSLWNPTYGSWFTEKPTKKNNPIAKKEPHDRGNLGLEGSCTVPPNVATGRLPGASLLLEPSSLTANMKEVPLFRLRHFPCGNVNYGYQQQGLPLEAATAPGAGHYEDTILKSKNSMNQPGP

Compound | Kd (JAK2) | IC50 [1] | IC50 [2] | Kd (JAK1) | Kd (TRKA) | Kd (JAK3) | IC50 [3] | Kd (ALK) | Kd (ROS1) | IC50 (ERK) | IC50 (AKT) | apoptosis of KM 12 cells (KM12 cells) | IC50 (TPM3-TRKA) | Kd (TRKB) | Kd (PLK4 kinase) | EML4-ALK Ba/F3 cell proli. TC50 [4]
CC1Nc2ccn3ncc(c3n2)C(=O)NCCOc2ccc(F)cc21 (stereo not drawn) [Example 51, 11-fluoro-13-methyl-6,7,13,14-tetrahydro-1,15-ethenopyrazolo[4,3-f][1,4,8,10]benzoxatriazacyclotridecin-4(5H)-one] | 0.15 nM | 3.2 nM | 425 nM | 65 nM | 0.065 nM | 4.3 nM | 832 nM |  |  |  |  |  |  |  |  | 
CN1Cc2c(ccc(F)c2Cl)OCCNC(=O)c2cnn3ccc1nc23 [Example 39, 12-chloro-11-fluoro-14-methyl-6,7,13,14-tetrahydro-1,15-ethenopyrazolo[4,3-f][1,4,8,10]benzoxatriazacyclotridecin-4(5H)-one] | 27 nM | 3.8 nM | 8800 nM |  | 0.23 nM |  | 3800 nM | 180 nM | 4.7 nM |  |  |  |  |  |  | 
CN1Cc2cc(F)ccc2OCCNC(=O)c2cnn3ccc1nc23 [Example 20, 11-fluoro-14-methyl-6,7,13,14-tetrahydro-1,15-ethenopyrazolo[4,3-f][1,4,8,10]benzoxatriazacyclo-tridecin-4(5H)-one] | 4.8 nM | 0.86 nM | 2000 nM | > 1000 nM | 0.031 nM | 120 nM | 1000 nM | 80 nM | 21 nM | 2 nM | 2.8 nM | induced apoptosis | 1.07 nM | 0.18 nM | 2.9 nM | 
C[C@H]1Nc2ccn3ncc(c3n2)C(=O)NCCOc2ccc(F)cc21 [Example 51-1, (13R)-11-fluoro-13-methyl-6,7,13,14-tetrahydro-1,15-ethenopyrazolo[4,3-f][1,4,8,10]benzoxatriazacyclotridecin-4(5H)-one] | 0.048 nM | 1.3 nM | 234 nM | 37 nM | 0.051 nM | 1.8 nM | 289 nM | 6.8 nM | 0.73 nM |  |  |  |  |  |  | 248 nM
CC1Oc2ccc3ncc(n3n2)C(=O)NCCOc2ccc(F)cc21 (stereo not drawn) [Example 41, 10-fluoro-8-methyl-15,16-dihydro-8H-3,6-ethenoimidazo[5,1-f][1,10,4,7,8]benzodioxatriazacyclotridecin-17(14H)-one] | 2.6 nM | 118 nM | 1500 nM | 280 nM | 6 nM | 33 nM | 3900 nM | 200 nM |  |  |  |  |  |  |  | 
C[C@@H]1CNC(=O)c2cnn3ccc(nc23)N[C@H](C)c2cc(F)ccc2O1 [Example 92, (7R,13R)-11-fluoro-7,13-dimethyl-6,7,13,14-tetrahydro-1,15-ethenopyrazolo[4,3-f][1,4,8,10]benzoxatriazacyclotridecin-4(5H)-one] |  | 0.3 nM | 142 nM |  |  |  | 88.7 nM |  |  |  |  |  |  |  |  | 78.6 nM
C[C@H]1CNC(=O)c2cnn3ccc(nc23)N[C@H](C)c2cc(F)ccc2O1 [Example 93, (7S,13R)-11-fluoro-7,13-dimethyl-6,7,13,14-tetrahydro-1,15-ethenopyrazolo[4,3-f][1,4,8,10]benzoxatriazacyclotridecin-4(5H)-one] |  | 0.5 nM | 242 nM |  |  |  |  |  |  |  |  |  |  |  |  | 21.1 nM
